Columns and labels:
[1] = test system: NF-κB-driven luciferase reporter in HEK 293T cells; experiment: NF-κB-driven luciferase reporter assay in HEK 293T cells; type: cell-based; conditions: 20 μg/mL synthetic compound, 20 minutes in permeabilization buffer (5 μg/mL digitonin), then 3.5 hours in complete medium; FIG. 35
Experimental: (§1) FIG. 35: Effects of compounds/products according to the invention on HEK 293T cells encoding an NF-κB-driven luciferase reporter gene. HEK 293T cells were transfected with a plasmid encoding an NF-κB-driven luciferase reporter. After 24 hours, cells were stimulated for 20 minutes in permeabilization buffer (5 μg/mL digitonin) in the presence of culture supernatant from N. meningitidis mutants with (gmhB) or without (hldA) HBP or 20 μg/mL of synthetic compounds according to the invention. Treatment was removed; cells were washed and incubated for 3.5 hours in complete medium. A luciferase assay was then performed. The results are mean of technical triplicates.
as §1, with “HEK” for “FIG. 35: Effects of compounds/products according to the invention on HEK 293T cells encoding an NF-κB-driven luciferase reporter gene. HEK”, “compound” for “compounds”, “results obtained are illustrated in FIG. 35. They” for “results”

[2] = test system: HCT 116 cells; experiment: IL-8 ELISA after stimulation of human colonic epithelial cells (HCT 116, WT or TIFA KO); type: cell-based; conditions: 10 μg/mL synthetic compound, 20 minutes with digitonin, then 6 hours, FIG. 36
Experimental: (§2) FIG. 36: Stimulation of human colonic epithelial cells by compounds/products according to the invention. Human colonic epithelial cells (HCT 116) that were either wild type (WT) or deficient in TIFA protein expression (knockout, KO) were stimulated for 20 minutes in permeabilization buffer (5 μg/mL digitonin) in the presence of culture supernatant from N. meningitidis mutants with (gmhB) or without (hldA) HBP or 10 μg/mL of synthetic compound according to the invention. Treatment was removed, cells were washed, and cells were incubated for 6 hours in complete media and IL-8 levels in culture supernatants were measured by ELISA. The results are mean of technical duplicates.
as §2, with “Human” for “FIG. 36: Stimulation of human colonic epithelial cells by compounds/products according to the invention. Human”, “results obtained are illustrated in FIG. 36. They” for “results”

[3] = test system: THP-1 cells; experiment: IL-8 ELISA after stimulation of human macrophage cells (THP-1); type: cell-based; conditions: THP-1, 30 μM or 150 μM synthetic compound, 20 minutes with digitonin, then 6 hours; FIG. 37
Experimental: (§3) FIG. 37: Stimulation of human macrophages by compounds/products according to the invention. Human macrophage cells (THP-1) were stimulated for 20 minutes in permeabilization buffer (5 μg/mL digitonin) in the presence of water, 39.8 μM of the Nod1 agonist C12-iE-DAP (which stimulates in a TIFA-independent manner), or either 30 μM or 150 μM of synthetic compound according to the invention. Treatment was removed, cells were washed, and cells were incubated for 6 hours in complete media before the IL-8 levels in culture supernatants were measured by ELISA. The results are the mean and standard error of the mean of three technical replicates. Nod1 agonist: C12-iE-DAP (20 μg/mL, 39.8 μM); HBP: D-glycero-1-D-manno-heptose-1β,7-bi-phosphate.
as §3, with “Stimulation” for “FIG. 37: Stimulation”, “ELISA (FIG. 37).” for “ELISA.”, “Nod1 agonist: C12-iE-DAP (20 μg/mL, 39.8 μM); HBP: D-glycero-1-D-manno-heptose-1β,7-bi-phosphate.” left out

[4] = test system: TbpB originating from group B N. meningitidis; experiment: Adjuvant test: mice immunized with TbpB, serum IgG titers to TbpB by ELISA; type: in vivo, C57BL/6NCrl mice; conditions: 25 μg TbpB with adjuvant intramuscularly, doses D0, D21, D28; serum D14, D28, D35; compared with TbpB alone and TbpB+alum; FIG. 38A
Experimental: (§4) FIG. 38: 6-week-old male C57BL/6NCrl mice were immunized with TbpB originating from group B N. meningitidis, purified from recombinant E. coli. All groups were immunized with 25 μg of TbpB with or without adjuvant, in a total volume of 30 μL intramuscularly: TbpB alone, TbpB+alum, and TbpB+HBP (200 μg). Three doses were given: D0, D21, and D28. Serum was collected at D0 prior to immunization, D14, D28, and D35 and then examined by ELISA for IgG titers to TbpB (FIG. 38A). Mice were challenged on D36 with 5×10^7 of N. meningitidis strain expressing the homologous TbpB. Mice were injected with human transferrin (200 μL of 8 mg/mL) as this is critical for the development of sepsis in this model. Mice were monitored at the 1 h, 12 h, 18 h, 24 h, and 36 h time points. At 1 h, blood was collected to enumerate CFUs (FIG. 38B). Clinical scores were collected at 12 h post challenge (FIG. 38C).
(§5) HBP can act as an adjuvant. 6-week-old male C57BL/6NCrl mice were immunized with TbpB originating from group B N. meningitidis, purified from recombinant E. coli. All groups were immunized with 25 μg of TbpB with or without adjuvant, in a total volume of 30 μL intramuscularly TbpB, TbpB+alum, and TbpB+HBP (equimolar to 200 μg). Three doses were given: D0, D21, D28. […] Mice were monitored at the 1 h, 12 h, 18 h, 24 h, and 36 h time points. […]

[5] = test system: N. meningitidis; experiment: Challenge of immunized mice with N. meningitidis strain expressing matching TbpB (sepsis model); type: in vivo, C57BL/6NCrl mice; conditions: TbpB with adjuvant as opposed to TbpB alone
Experimental: as §4, §5

In the case of `O=P(O)(O)OC[C@@H](O)[C@H]1O[C@@H](OP(=O)(O)O)[C@@H](O)[C@@H](O)[C@@H]1O` [HBP, D-glycero-D-manno-heptopyranose 1β,7-bisphosphate], the “NF-κB stimulation (luciferase assay)” value [1] is reported as “can immunomodulate via NF-κB stimulation in vitro”, the “cytokine expression (IL-8 levels in culture supernatants)” value [2] is reported as “can drive cytokine expression in vitro” and the “cytokine expression (IL-8 levels in culture supernatants)” value [3] is reported as “can drive cytokine expression in vitro”. The “IgG titers to TbpB” value [4] was “significantly higher than administration of TbpB alone and greater than observed with alum as the adjuvant”, the clinical scores ([5]; challenge D36, 12 h post challenge, FIG. 38C) was “lower” and the “bacterial burden (CFU in blood)” value ([5]; challenge D36 with 5×10^7 N. meningitidis, blood at 1 h, FIG. 38B) was “reduced”.
